Numbered stars: 1 amine (or outer) side, 2 acyl side, 3 side chain; on linkers, the order of the positions; unused ones are H or OH. Square brackets hold non-standard residues; d marks the D form. Peptide text beside a SMILES is read from it. * marks the point of attachment. ξ: configuration not given here. X6 = N=C1NCC(CC(N[*:1])C(=O)[*:2])N1C1OC(CO)C(O)C(O)C1O; ξEnduracididine(βξ-OH,4'ξ) = N=C1NCC(C(O)C(N)C(=O)O)N1; X2 = OCC1OC(OC2C(CO)OC(*)C(O)C2O)C(O)C(O)C1O; ξPhe(βξ-Me) = CC(c1ccccc1)C(N)C(=O)O
Tests used:
Assay in all cases: in vitro antibacterial evaluation, MIC by broth dilution
Assay type in all cases: cell-based
Escherichia coli = details: 18 hours at 35° C.
Outline: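 Following National Committee for Clinical Laboratory Standards recommendations (M7-A2), susceptibility was measured by dilution in Muller-Hinton II […]. Bacteria were seeded at 5×10^5 CFU/mL against compound concentrations from 64 down to 0.06 μg/mL.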

Streptococcus sp. = details: broth dilution, 18 hours at 35° C.
Outline: (§1)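 Broth dilution per NCCLS standard M7-A2 in Muller-Hinton II […], with an inoculum of 5×10^5 CFU/mL and antibiotic spanning 64-0.06 μg/mL. The MIC is the lowest concentration that inhibits growth of the organism.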

Enterococcus sp. = details: broth dilution, 18 hours at 35° C.
Outline: as §1

Staphylococcus sp. = details: broth dilution, 18 hours at 35° C.
Outline: as §1

CC(c1ccccc1)C1NC(=O)CNC(=O)C(CO)NC(=O)C(CC2CNC(=N)N2C2OC(CO)C(O)C(O)C2O)NC(=O)C(C(O)C2CNC(=N)N2)NC(=O)C(Cc2ccc(OC3OC(CO)C(OC4OC(CO)C(O)C(O)C4O)C(O)C3O)cc2)NC1=O (stereo not drawn) [Example 284b, Cyclo[3-(3-hexopyranosyl-2-iminoimidazolidin-4-yl)-alanylserylglycl-β-methylphenylalanyl-O-(4-O-hexopyranosylhexopyranosyl)tyrosyl-3-(2-iminoimidazolidin-4-yl)seryl]] (cyclo(G[ξPhe(βξ-Me)]Y(X2)[ξEnduracididine(βξ-OH,4'ξ)][X6]S); configuration not given here)
128 µg/mL: MIC Streptococcus pneumoniae (GC 1894) (Streptococcus sp.; strain GC 1894) | MIC Enterococcus avium (GC 4558) (Enterococcus sp.; Enterococcus avium (GC 4558)) | MIC Enterococcus faecium (GC 4557) (Enterococcus sp.; Enterococcus faecium (GC 4557)) | MIC Enterococcus faecium (GC 4557) (Enterococcus sp.; strain GC 4557) | MIC Enterococcus avium (GC 4558) (Enterococcus sp.; strain GC 4558)
>128 µg/mL: MIC Escherichia coli (ATCC 25922) (Escherichia coli; Escherichia coli (ATCC 25922)) | MIC Escherichia coli (GC 4559) (Escherichia coli; Escherichia coli (GC 4559)) | MIC Escherichia coli (GC 4560) (Escherichia coli; Escherichia coli (GC 4560)) | MIC Streptococcus pneumoniae (ATCC 6301) (Streptococcus sp.; strain ATCC 6301) | MIC Streptococcus pyogenes (GC 4563) (Streptococcus sp.; strain GC 4563) | MIC Streptococcus agalactiae (GC 4564) (Streptococcus sp.; strain GC 4564) | MIC Streptococcus pneumoniae (GC 4565) (Streptococcus sp.; strain GC 4565) | MIC Enterococcus faecalis (ATCC 29212) (Enterococcus sp.; Enterococcus faecalis (ATCC 29212)) | MIC Enterococcus faecalis (GC 4553) (Enterococcus sp.; Enterococcus faecalis (GC 4553)) | MIC Enterococcus faecalis (GC 4554) (Enterococcus sp.; Enterococcus faecalis (GC 4554)) | MIC Enterococcus faecalis (GC 6189) (Enterococcus sp.; Enterococcus faecalis (GC 6189)) | MIC Enterococcus faecium (GC 2243) (Enterococcus sp.; Enterococcus faecium (GC 2243)) | MIC Enterococcus faecium (GC 4556) (Enterococcus sp.; Enterococcus faecium (GC 4556)) | MIC Enterococcus faecalis (ATCC 29212) (Enterococcus sp.; strain ATCC 29212) | MIC Enterococcus faecalis (GC 2242) (Enterococcus sp.; strain GC 2242) | MIC Enterococcus faecium (GC 2243) (Enterococcus sp.; strain GC 2243) | MIC Enterococcus faecalis (GC 2691) (Enterococcus sp.; strain GC 2691) | MIC Enterococcus faecalis (GC 3059) (Enterococcus sp.; strain GC 3059) | MIC Enterococcus faecalis (GC 4552) (Enterococcus sp.; strain GC 4552) | MIC Enterococcus faecalis (GC 4553) (Enterococcus sp.; strain GC 4553) | MIC Enterococcus faecalis (GC 4554) (Enterococcus sp.; strain GC 4554) | MIC Enterococcus faecium (GC 4556) (Enterococcus sp.; strain GC 4556) | MIC Enterococcus faecalis (GC 6189) (Enterococcus sp.; strain GC 6189) | MIC Coagulase Negative Staphylococcus (GC 4547) (Staphylococcus sp.) | MIC Coagulase Negative Staphylococcus (GC 4548) (Staphylococcus sp.) | MIC Coagulase Negative Staphylococcus (GC 4549) (Staphylococcus sp.) | MIC Coagulase Negative Staphylococcus (GC 4551) (Staphylococcus sp.) | MIC Staphylococcus aureus (ATCC 29213) (Staphylococcus sp.) | MIC Staphylococcus aureus (GC 1131) (Staphylococcus sp.) | MIC Staphylococcus aureus (GC 3051) (Staphylococcus sp.) | MIC Staphylococcus aureus (GC 3053) (Staphylococcus sp.) | MIC Staphylococcus aureus (GC 4541) (Staphylococcus sp.) | MIC Staphylococcus aureus (GC 4542) (Staphylococcus sp.) | MIC Staphylococcus aureus (GC 4544) (Staphylococcus sp.) | MIC Staphylococcus aureus (GC 4545) (Staphylococcus sp.) | MIC Staphylococcus aureus-SMITH (GC 4543) (Staphylococcus sp.) | MIC Staphylococcus haemolyticus (GC 4546) (Staphylococcus sp.) | MIC Staphylococcus aureus (ATCC 29213) (Staphylococcus sp.; strain ATCC 29213) | MIC Staphylococcus aureus (GC 1131) (Staphylococcus sp.; strain GC 1131) | MIC Staphylococcus aureus (GC 3051) (Staphylococcus sp.; strain GC 3051) | MIC Staphylococcus aureus (GC 3053) (Staphylococcus sp.; strain GC 3053) | MIC Staphylococcus aureus (GC 4541) (Staphylococcus sp.; strain GC 4541) | MIC Staphylococcus aureus (GC 4542) (Staphylococcus sp.; strain GC 4542) | MIC Staphylococcus aureus (GC 4544) (Staphylococcus sp.; strain GC 4544) | MIC Staphylococcus aureus (GC 4545) (Staphylococcus sp.; strain GC 4545) | MIC Staphylococcus haemolyticus (GC 4546) (Staphylococcus sp.; strain GC 4546) | MIC Coagulase Negative Staphylococcus (GC 4547) (Staphylococcus sp.; strain GC 4547) | MIC Coagulase Negative Staphylococcus (GC 4548) (Staphylococcus sp.; strain GC 4548) | MIC Coagulase Negative Staphylococcus (GC 4549) (Staphylococcus sp.; strain GC 4549) | MIC Coagulase Negative Staphylococcus (GC 4551) (Staphylococcus sp.; strain GC 4551) | MIC Staphylococcus aureus-SMITH (GC 4543) (Staphylococcus sp.; strain SMITH GC 4543)
